Active and inactive are the calls of the source. The calls are words filed in the database; no cut-off is given here.
Tests used:
[1] = test system: Escherichia coli; test: Antibacterial activity against Escherichia coli AS19; format: functional, organism-based
[2] = test system: Escherichia coli; test: Antibacterial activity against Escherichia coli B; format: functional, organism-based

| SMILES | inhibition [1] | inhibition [2] |
| --- | --- | --- |
| OCCc1scnc1C(F)(F)F | inactive | inactive |
| Cc1nc(F)sc1CCO | inactive | inactive |

— ChEMBL document CHEMBL3228004, “An attempt to apply lethal synthesis to the design of chemotherapeutic agents. Fluorinated 5 beta-(hydroxyethyl)-4-methylthiazoles” (J Med Chem, 1979)
